Experimental data published in patent US20190083521A1, “COMBINATION THERAPY FOR TREATING CANCER” (Epizyme, Inc., priority 2014, published 2019).
“Also recorded” adds a separate entry of the source. Read-outs that look alike come from different tables or passages of the source.

Experiments:
Assay type in all cases: cell-based, human
MOLM-13 (MLL-AF9) cells = assay: Combination proliferation assay with Compound A2 (CellTiter-Glo, Chou-Talalay CI); conditions: for Combination effect with Compound A2 (Table 4): MOLM-13 (MLL-AF9), 7 Day Cotreatment Model; for Combination effect with Compound A2 (Table 2): MOLM-13 MLL-AF9; for Combination effect, reverse order of addition with Ara-C washout: washed out, then Compound A2 7 days
In short: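 Viability by CellTiter-Glo ATP luminescence; fraction affected versus DMSO controls, combination index by Chou-Talalay (CI <1 synergy, >1 antagonism).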

MV4-11 (MLL-AF4) cells = assay: as above; conditions: for Combination effect with Compound A2: 7 Day Cotreatment (Example 1); for Combination effect with Compound A2 (Table 2): MV4-11 MLL-AF4
In short: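 Viability by CellTiter-Glo ATP luminescence; fraction affected versus DMSO controls; combination index by Chou-Talalay method (CI <1 synergy, >1 antagonism).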

[1] = tested on: SKM-1 (non-MLL-rearranged AML) cells; assay: as above
Method: (§1) Graphs representing values of combination index (CI) versus Fractional effect (Fa) known as Fa-CI plots were generated and synergy was evaluated.
(§2) Viability was determined using CellTiter-Glo® (Promega).
MV4-11 cells were maintained in IMDM supplemented with 10% fetal bovine serum. MOLM-13 and SKM-1 cells were maintained in Roswell Park Memorial Institute medium (RPMI) supplemented with 10% fetal bovine serum. They were cultured in flasks or plates in a humidified 5% CO2 atmosphere.
Proliferation studies were performed using MOLM-13, MV4-11 and SKM-1 cell lines in vitro to evaluate the cancer cell killing effect of a combination of two agents together on cell growth. Initial proliferation studies were performed to determine the IC50 values of a given compound in each cell line. The cell counts were measured by ATP quantitation using the Promega Cell Titer Glo kit and luminescence values correspond to the amount of ATP in a given well.
Compounds evaluated for synergy in the co-treatment phase were tested in a range which was bracketed around the IC50's. The compounds were plated to a 96 well plate in a matrix format which includes increasing concentrations of each drug in the combination in a constant ratio, in addition to the effect of each compound alone in the study. Cells were seeded and grown in the log-linear phase for 3 or 7 days in the cotreatment phase. Maximum and minimum inhibition (DMSO alone) controls were used in each plate to calculate fraction affected (Fa) of a test well. DMSO concentration was kept at 0.1% v/v. The drug combination analysis was performed utilizing the Chou-Talalay method. Synergy was determined using the software package Calcusyn by Biosoft. The combination index (CI) is the term used to describe the level of synergy or antagonism in a given test system. A combination index less than one indicates synergy, and a CI greater than one indicates antagonism.
The drug combination analysis was performed using the Chou-Talalay method. Graphs representing values of combination index (CI) versus Fractional effect (Fa) known as Fa-CI plots were generated and synergy was evaluated.

EOL-1 (MLL-PTD) cells = assay: Combination proliferation assay with Compound A2 (Chou-Talalay CI)
Method: as §1, §2

KOPM-88 (MLL-PTD) cells = assay: as above
Method: as §1, §2

MOLM-13 cells [2] = assay: Flow cytometric analysis of cell cycle and Annexin V (apoptosis)
Method: (§3) A Guava EasyCyte HT™ flow cytometer was used to measure DNA content, Annexin V staining and cell surface expression of CD14 and CD11b markers on Days 10 and 14.
(§4) On Day 0 MOLM-13 cells are seeded at 3,000 cells/mL. On Day 7 and Day 10 MOLM-13 cells are counted and reseeded at 50,000 cells/mL. […] On Day 10 They were redosed again. On Day 14 the experiment was terminated. Cells were sampled for CD14 and CD11b analysis on Days 7, 10 and 14.
To evaluate the fraction of cells in each cell cycle, flow cytometric analysis was performed. FACS analysis for detection of cell death by apoptosis, and cell cycle was performed.
Cells were harvested on days 7, 10 and 14 and split to allow simultaneous analysis of cell cycle and Annexin V staining. Apoptosis was determined using the Guava Nexin Assay (Millipore 4500-0450) and cells were prepared according to the manufacturer's recommendations. Samples were analyzed using the Guava EasyCyte Plus System (Millipore). Cells for cell cycle analysis were pelleted by centrifugation at 200×g for 5 minutes at 4° C., washed twice with ice cold PBS then fixed with 70% ice cold ethanol. All samples were analyzed together at end of experiment. Following fixation cells were washed with PBS and stained with the Guava cell cycle reagent (Millipore 4500-0220) for 30 minutes. Samples were analyzed using the Guava EasyCyte Plus System (Millipore).

MOLM-13 cells [3] = assay: CD11b and CD14 differentiation marker expression by flow cytometry; conditions: single agents
Method: as §3, §4
On day 7, 10, and 14, cells were collected for analysis. The cells were prepared by washing twice in PBS, followed by fixation in 4% formaldehyde for ten minutes at 37° C. After fixation cells were washed and blocked with blocking buffer for 10 minutes at room temperature. Cells were then incubated in presence of anti-CD14, anti-CD11b or anti-IgG antibody for 1 hour at room temperature while rotating. Cells were washed, re-suspended in PBS and 5,000 events were analyzed using ExpressPro software on the GuavaCyte Plus System.

[4] = SKM-1 non-MLL-rearranged (Example 5)
[5] = 14 day treatment, 156 nM Compound A2 or 63 nM Ara-C

Nc1ncn([C@@H]2O[C@H](CO)[C@@H](O)[C@H]2O)c(=O)n1 [Azacitidine]
Combination effect with Compound A2 (Table 4) (MOLM-13 (MLL-AF9) cells): Strong Synergy
Combination effect with Compound A2 (Table 2) (MOLM-13 (MLL-AF9) cells): Synergy (Drug synergy was statistically defined by CI values less than 1)
Combination effect with Compound A2 (MV4-11 (MLL-AF4) cells; MV4-11): Synergy (A combination index less than one indicates synergy)
Combination effect with Compound A2 (Table 2) (MV4-11 (MLL-AF4) cells): Synergy (Drug synergy was statistically defined by CI values less than 1)
Effect of Compound A2 on antiproliferative activity of the second agent [1, 4]: no impact
Combination effect with Compound A2 (Table 3) (EOL-1 (MLL-PTD) cells; EOL-1 (MLL-PTD)): Synergy (Drug synergy was statistically defined by CI values less than 1)
Combination effect with Compound A2 (Table 3) (KOPM-88 (MLL-PTD) cells; KOPM-88 (MLL-PTD)): Synergy (Drug synergy was statistically defined by CI values less than 1)

Nc1ccn([C@@H]2O[C@H](CO)[C@@H](O)[C@@H]2O)c(=O)n1 [Ara-C, cytarabine]
Combination effect with Compound A2 (Table 4) (MOLM-13 (MLL-AF9) cells): Strong Synergy
Combination effect with Compound A2 (MOLM-13 (MLL-AF9) cells; MOLM-13, 4 + 3 Model (4 days Compound A2 pretreatment, then 3 days co-treatment)): Synergy (A combination index less than one indicates synergy)
Combination effect with Compound A2 (MOLM-13 (MLL-AF9) cells; MOLM-13, 7 Day Cotreatment (Example 1)): Synergy (A combination index less than one indicates synergy)
Combination effect, reverse order of addition (MOLM-13 (MLL-AF9) cells; MOLM-13, Ara-C 3 days, then Compound A2 and Ara-C co-treatment 7 days): Synergy (Drug synergy was statistically defined by CI values less than 1)
Combination effect, reverse order of addition with Ara-C washout (MOLM-13 (MLL-AF9) cells; MOLM-13, Ara-C 3 days): Combination benefit is maintained
Combination effect, reverse order of addition with Ara-C washout (MOLM-13 (MLL-AF9) cells; MOLM-13, Ara-C 3 days, listed as cytarabine): essentially the same level of synergistic cell killing
Antiproliferative combination effect after Compound A2 washout (MOLM-13 (MLL-AF9) cells; MOLM-13, Compound A2 washed out prior to addition of the SOC agent): durable combination benefit; also recorded: maintained
Antiproliferative combination effect with Compound A2 (MOLM-13 (MLL-AF9) cells; MOLM-13, pre-treatment model, no Compound A2 washout): synergistic
Combination effect with Compound A2 (Table 2) (MOLM-13 (MLL-AF9) cells): Synergy (Drug synergy was statistically defined by CI values less than 1)
Combination effect with Compound A2 (Table 2) (MOLM-13 (MLL-AF9) cells; listed as cytarabine): synergistically
Combination effect with Compound A2 (MV4-11 (MLL-AF4) cells; MV4-11): Synergy (A combination index less than one indicates synergy)
Antiproliferative combination effect after Compound A2 washout (MV4-11 (MLL-AF4) cells; MV4-11, Compound A2 washed out prior to addition of the SOC agent): maintained
Antiproliferative combination effect with Compound A2 (MV4-11 (MLL-AF4) cells; MV4-11, pre-treatment model, no Compound A2 washout): synergistic
Combination effect with Compound A2 (Table 2) (MV4-11 (MLL-AF4) cells): synergistically
Apoptosis in combination with Compound A2 (MOLM-13 cells [2]; 156 nM Compound A2 + 63 nM Ara-C): enhance apoptosis
Sub-G1 cell population in combination with Compound A2 (MOLM-13 cells [2]; 156 nM Compound A2 + 63 nM Ara-C, at 10 and 14 days): significant increase
Apoptotic cell population, single agent (MOLM-13 cells [2]; [5]): modest increase
Sub-G1 cell population, single agent (MOLM-13 cells [2]; [5]): minimal effect
Differentiation markers CD11b and CD14 (MOLM-13 cells [3]): time and concentration dependent up-regulation
Combination effect with Compound A2 (Table 2) ([1]; SKM-1 AML: Non-rearranged): did not act synergistically
Effect of Compound A2 on antiproliferative activity of the second agent [1, 4]: did not affect
Combination effect with Compound A2 (Table 3) (EOL-1 (MLL-PTD) cells; EOL-1 (MLL-PTD)): Synergy (Drug synergy was statistically defined by CI values less than 1)
Combination effect with Compound A2 (Table 3) (KOPM-88 (MLL-PTD) cells; KOPM-88 (MLL-PTD)): Synergy (Drug synergy was statistically defined by CI values less than 1)

COc1cccc2c1C(=O)c1c(O)c3c(c(O)c1C2=O)C[C@@](O)(C(C)=O)C[C@@H]3O[C@H]1C[C@H](N)[C@H](O)[C@H](C)O1 [Daunorubicin]
Antiproliferative combination effect after Compound A2 washout (MOLM-13 (MLL-AF9) cells): maintained
Antiproliferative combination effect with Compound A2 (MOLM-13 (MLL-AF9) cells): synergistic
Antiproliferative combination effect after Compound A2 washout (MV4-11 (MLL-AF4) cells): maintained
Antiproliferative combination effect with Compound A2 (MV4-11 (MLL-AF4) cells): synergistic
Combination effect with Compound A2 (Table 2) [1]: did not act synergistically
Effect of Compound A2 on antiproliferative activity of the second agent [1]: did not affect
Combination effect with Compound A2 (Table 3) (EOL-1 (MLL-PTD) cells): Synergy (key: Synergy: Drug synergy was statistically defined by CI values less than 1; Antagonistic: antagonism by CI>1; Additive: additive effect by CI equal to 1)
Combination effect with Compound A2 (Table 3) (KOPM-88 (MLL-PTD) cells): Synergy (key: Synergy: Drug synergy was statistically defined by CI values less than 1; Antagonistic: antagonism by CI>1; Additive: additive effect by CI equal to 1)
